Measurements published in ChEMBL document CHEMBL4346729, “The discovery of novel 3-aryl-indazole derivatives as peripherally restricted pan-Trk inhibitors for the treatment of pain” (Bioorg Med Chem Lett, 2019).
Active and inactive are the calls of the source. The rule behind the calls is not given here.

What was measured:
[1] = biological target: Insulin receptor (Homo sapiens) (UniProt P06213); experiment: Inhibition of recombinant human N-terminal GST/His6-tagged INS-R C-terminal (G989 to S1382) expressed in Sf9 insect cells at 20 nM using phosphatidylserine as substrate incubated for 60 mins in presence of [33P]-ATP by scintillation counting method
Sequence of Insulin receptor (Homo sapiens) (P06213 28-758 limits assumed): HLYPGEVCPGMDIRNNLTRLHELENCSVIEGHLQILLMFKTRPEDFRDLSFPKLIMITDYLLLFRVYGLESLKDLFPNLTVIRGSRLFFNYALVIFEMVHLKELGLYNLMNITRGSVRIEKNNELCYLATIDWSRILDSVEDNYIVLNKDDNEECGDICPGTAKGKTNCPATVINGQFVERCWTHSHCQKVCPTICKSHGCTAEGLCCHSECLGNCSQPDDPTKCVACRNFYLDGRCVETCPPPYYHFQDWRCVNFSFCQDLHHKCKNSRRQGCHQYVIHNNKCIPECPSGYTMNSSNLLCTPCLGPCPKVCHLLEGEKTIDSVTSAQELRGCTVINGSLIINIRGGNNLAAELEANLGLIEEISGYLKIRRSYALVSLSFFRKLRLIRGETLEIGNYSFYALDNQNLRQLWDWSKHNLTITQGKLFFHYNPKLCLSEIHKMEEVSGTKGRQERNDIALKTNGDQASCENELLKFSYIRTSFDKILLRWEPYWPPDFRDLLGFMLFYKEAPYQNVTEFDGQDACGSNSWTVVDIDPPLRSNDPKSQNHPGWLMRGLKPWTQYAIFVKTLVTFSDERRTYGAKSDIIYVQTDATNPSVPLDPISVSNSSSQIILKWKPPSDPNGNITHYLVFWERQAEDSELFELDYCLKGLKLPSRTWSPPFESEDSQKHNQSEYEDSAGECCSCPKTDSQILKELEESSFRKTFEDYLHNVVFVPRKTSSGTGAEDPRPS
Sequence of Insulin receptor (Homo sapiens) (P06213 763-1382 limits assumed): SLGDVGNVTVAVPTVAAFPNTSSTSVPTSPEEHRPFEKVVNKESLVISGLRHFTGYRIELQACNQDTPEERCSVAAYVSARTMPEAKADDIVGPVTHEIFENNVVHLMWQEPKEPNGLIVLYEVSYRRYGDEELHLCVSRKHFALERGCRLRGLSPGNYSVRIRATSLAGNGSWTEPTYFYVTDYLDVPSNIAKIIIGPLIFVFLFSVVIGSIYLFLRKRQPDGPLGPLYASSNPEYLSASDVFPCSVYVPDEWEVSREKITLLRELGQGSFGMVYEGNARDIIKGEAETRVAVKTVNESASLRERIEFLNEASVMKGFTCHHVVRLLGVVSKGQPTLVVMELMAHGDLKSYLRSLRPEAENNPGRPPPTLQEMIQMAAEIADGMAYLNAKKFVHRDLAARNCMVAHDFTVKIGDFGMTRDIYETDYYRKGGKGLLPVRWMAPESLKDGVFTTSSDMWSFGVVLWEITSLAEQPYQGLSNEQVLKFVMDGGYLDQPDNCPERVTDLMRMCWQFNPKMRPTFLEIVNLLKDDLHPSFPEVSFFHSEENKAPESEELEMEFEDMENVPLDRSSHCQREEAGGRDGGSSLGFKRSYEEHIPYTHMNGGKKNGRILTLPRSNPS

[2] = biological target: Ribosomal protein S6 kinase alpha-5 (Homo sapiens) (UniProt O75582); experiment: Inhibition of RPS6KA5 (unknown origin) at 20 nM using phosphatidylserine as substrate incubated for 60 mins in presence of [33P]-ATP by scintillation counting method
Sequence of Ribosomal protein S6 kinase alpha-5 (Homo sapiens) (O75582 whole entry, looked up): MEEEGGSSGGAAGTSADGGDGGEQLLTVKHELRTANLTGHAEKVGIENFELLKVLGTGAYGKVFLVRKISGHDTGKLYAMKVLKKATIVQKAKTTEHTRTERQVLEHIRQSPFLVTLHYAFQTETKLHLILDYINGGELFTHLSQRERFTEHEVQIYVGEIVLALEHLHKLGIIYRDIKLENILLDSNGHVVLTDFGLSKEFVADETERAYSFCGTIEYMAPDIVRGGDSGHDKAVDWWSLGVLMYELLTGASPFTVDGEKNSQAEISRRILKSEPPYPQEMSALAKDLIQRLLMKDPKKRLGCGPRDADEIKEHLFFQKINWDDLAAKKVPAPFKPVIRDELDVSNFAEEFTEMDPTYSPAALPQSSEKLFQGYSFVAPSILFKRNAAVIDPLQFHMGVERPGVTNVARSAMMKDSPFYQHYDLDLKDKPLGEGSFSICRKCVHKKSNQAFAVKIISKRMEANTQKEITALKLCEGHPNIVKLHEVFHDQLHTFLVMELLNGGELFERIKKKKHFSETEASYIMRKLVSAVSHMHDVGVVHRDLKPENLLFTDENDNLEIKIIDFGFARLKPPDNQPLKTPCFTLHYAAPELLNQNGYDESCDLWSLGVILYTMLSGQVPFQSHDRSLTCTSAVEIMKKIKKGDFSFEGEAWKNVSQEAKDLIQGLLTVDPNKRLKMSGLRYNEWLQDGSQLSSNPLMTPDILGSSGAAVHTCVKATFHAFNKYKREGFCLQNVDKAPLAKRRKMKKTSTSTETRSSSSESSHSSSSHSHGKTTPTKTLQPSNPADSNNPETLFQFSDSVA

[3] = biological target: Serine/threonine-protein kinase Sgk1 (Homo sapiens) (UniProt O00141); experiment: Inhibition of recombinant human full length N-terminal GST and C-terminal His6-tagged SGK1 (M1 to L431) expressed in Sf9 insect cells at 20 nM using phosphatidylserine as substrate incubated for 60 mins in presence of [33P]-ATP by scintillation counting method
Sequence of Serine/threonine-protein kinase Sgk1 (Homo sapiens) (O00141 whole entry): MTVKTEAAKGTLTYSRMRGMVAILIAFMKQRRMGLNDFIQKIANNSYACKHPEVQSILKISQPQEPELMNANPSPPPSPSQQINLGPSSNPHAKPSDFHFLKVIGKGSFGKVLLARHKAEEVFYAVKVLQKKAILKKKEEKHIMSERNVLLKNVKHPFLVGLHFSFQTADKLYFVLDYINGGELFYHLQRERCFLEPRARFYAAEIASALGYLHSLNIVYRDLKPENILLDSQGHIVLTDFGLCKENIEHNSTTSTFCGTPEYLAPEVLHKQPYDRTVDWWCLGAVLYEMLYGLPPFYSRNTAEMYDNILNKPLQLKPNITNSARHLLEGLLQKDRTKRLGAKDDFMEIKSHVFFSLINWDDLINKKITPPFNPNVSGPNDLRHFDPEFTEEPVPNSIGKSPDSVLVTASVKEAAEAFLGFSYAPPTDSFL

[4] = biological target: Vascular endothelial growth factor receptor 2 (Homo sapiens) (UniProt P35968); experiment: Inhibition of recombinant human N-terminal GST-tagged VEGF-R2 C-terminal (G443 to G796) expressed in Sf9 insect cells at 20 nM using phosphatidylserine as substrate incubated for 60 mins in presence of [33P]-ATP by scintillation counting method
[5] = biological target: Mitogen-activated protein kinase kinase kinase kinase 4 (Homo sapiens) (UniProt O95819); experiment: Inhibition of recombinant human N-terminal GST/His6-tagged MAP4K4 (A7 to W1320) expressed in Sf9 insect cells at 20 nM using phosphatidylserine as substrate incubated for 60 mins in presence of [33P]-ATP by scintillation counting method
Sequence of Mitogen-activated protein kinase kinase kinase kinase 4 (Homo sapiens) (O95819 2-1239 limits assumed): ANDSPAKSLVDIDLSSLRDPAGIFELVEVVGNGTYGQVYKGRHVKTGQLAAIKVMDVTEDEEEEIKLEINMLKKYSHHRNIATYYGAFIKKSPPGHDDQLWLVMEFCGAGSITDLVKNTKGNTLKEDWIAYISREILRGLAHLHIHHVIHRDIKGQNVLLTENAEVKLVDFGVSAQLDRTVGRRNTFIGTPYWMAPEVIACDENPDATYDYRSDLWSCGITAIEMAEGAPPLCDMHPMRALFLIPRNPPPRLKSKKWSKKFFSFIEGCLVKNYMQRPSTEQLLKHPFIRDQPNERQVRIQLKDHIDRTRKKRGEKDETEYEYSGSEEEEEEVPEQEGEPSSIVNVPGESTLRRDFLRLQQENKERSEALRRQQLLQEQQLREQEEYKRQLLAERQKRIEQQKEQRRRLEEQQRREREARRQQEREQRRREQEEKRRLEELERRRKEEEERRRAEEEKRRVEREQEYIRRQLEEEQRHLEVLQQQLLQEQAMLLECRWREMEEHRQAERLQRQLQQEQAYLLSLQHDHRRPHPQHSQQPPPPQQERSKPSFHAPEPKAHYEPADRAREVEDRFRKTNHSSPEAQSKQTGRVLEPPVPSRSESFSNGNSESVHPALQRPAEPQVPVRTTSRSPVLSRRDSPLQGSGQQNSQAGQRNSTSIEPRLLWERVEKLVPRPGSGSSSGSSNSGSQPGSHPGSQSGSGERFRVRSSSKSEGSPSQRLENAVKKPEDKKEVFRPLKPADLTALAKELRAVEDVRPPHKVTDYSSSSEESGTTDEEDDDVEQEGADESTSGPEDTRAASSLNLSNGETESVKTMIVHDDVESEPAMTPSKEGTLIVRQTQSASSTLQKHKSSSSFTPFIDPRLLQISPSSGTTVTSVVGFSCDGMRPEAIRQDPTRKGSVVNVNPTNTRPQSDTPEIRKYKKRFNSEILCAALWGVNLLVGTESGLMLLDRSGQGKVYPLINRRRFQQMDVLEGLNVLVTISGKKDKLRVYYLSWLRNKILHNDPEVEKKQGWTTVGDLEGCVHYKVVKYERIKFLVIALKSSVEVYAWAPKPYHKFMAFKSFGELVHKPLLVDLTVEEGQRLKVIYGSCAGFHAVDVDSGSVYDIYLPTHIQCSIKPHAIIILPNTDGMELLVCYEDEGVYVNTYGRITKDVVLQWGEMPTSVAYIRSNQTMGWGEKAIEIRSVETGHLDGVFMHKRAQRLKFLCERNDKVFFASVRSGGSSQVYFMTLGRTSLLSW

[6] = biological target: cGMP-dependent protein kinase 1 (Homo sapiens) (UniProt Q13976); experiment: Inhibition of PRKG1 (unknown origin) at 20 nM using cGMP as substrate incubated for 60 mins in presence of [33P]-ATP by scintillation counting method
Sequence of cGMP-dependent protein kinase 1 (Homo sapiens) (Q13976 whole entry): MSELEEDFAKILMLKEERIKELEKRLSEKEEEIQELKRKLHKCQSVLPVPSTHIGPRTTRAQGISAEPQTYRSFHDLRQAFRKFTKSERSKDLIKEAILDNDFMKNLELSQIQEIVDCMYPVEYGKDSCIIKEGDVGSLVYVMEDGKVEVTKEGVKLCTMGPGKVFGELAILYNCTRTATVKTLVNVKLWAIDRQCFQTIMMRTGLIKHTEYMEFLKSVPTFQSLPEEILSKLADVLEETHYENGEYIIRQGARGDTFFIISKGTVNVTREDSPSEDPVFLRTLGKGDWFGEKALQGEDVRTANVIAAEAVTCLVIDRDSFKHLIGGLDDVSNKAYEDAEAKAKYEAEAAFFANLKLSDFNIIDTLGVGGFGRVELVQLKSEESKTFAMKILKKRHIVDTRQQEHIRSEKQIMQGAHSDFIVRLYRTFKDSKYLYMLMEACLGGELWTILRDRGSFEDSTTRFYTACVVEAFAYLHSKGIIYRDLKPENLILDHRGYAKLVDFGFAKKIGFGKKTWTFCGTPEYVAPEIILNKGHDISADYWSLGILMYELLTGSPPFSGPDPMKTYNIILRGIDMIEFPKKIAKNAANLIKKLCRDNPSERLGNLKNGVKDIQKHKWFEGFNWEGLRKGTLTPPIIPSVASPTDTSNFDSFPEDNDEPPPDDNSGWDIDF

Rattus norvegicus [7] = experiment: Antinociceptive activity in CFA induced thermal hypersensitivity Sprague-Dawley rat model assessed as increase in paw withdrawal latency at 0.8 mg/kg, po after 1 hr; format: functional, organism-based
[8] = biological target: Serine/threonine-protein kinase 3 (Homo sapiens) (UniProt Q13188); experiment: Inhibition of recombinant human full length MST2 (M1 to F491) expressed in Sf9 insect cells at 20 nM using phosphatidylserine as substrate incubated for 60 mins in presence of [33P]-ATP by scintillation counting method
Rattus norvegicus [9] = experiment: Antinociceptive activity in CFA induced thermal hypersensitivity Sprague-Dawley rat model assessed as increase in paw withdrawal latency at 20 mg/kg, po after 1 hr; format: functional, organism-based
[10] = biological target: Serine/threonine-protein kinase PAK 2 (Homo sapiens) (UniProt Q13177); experiment: Inhibition of recombinant human N-terminal GST/His6-tagged PAK2 (D3 to R524) expressed in Sf9 insect cells at 20 nM using phosphatidylserine as substrate incubated for 60 mins in presence of [33P]-ATP by scintillation counting method
Sequence of Serine/threonine-protein kinase PAK 2 (Homo sapiens) (Q13177 whole entry): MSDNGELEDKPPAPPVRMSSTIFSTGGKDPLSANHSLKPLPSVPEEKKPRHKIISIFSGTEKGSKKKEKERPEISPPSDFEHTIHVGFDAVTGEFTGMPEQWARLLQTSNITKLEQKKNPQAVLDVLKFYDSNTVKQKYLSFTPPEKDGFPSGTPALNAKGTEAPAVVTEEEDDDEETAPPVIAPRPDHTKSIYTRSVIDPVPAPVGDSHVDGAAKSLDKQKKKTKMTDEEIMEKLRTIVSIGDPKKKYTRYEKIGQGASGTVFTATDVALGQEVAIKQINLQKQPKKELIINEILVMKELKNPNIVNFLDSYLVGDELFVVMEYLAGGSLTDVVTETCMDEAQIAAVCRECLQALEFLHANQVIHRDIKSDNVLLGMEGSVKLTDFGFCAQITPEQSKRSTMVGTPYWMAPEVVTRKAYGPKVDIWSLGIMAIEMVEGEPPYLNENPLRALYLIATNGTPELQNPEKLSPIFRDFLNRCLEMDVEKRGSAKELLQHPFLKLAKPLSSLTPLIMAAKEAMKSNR

Structure (SMILES): Cn1cc(-c2n[nH]c3ccc(NCc4cc(F)ccc4S(C)(=O)=O)cc23)cn1
- inhibition [1]: -7%
- inhibition [2]: 5%
- inhibition [3]: -1%
- inhibition [4]: 4%
- inhibition [5]: 5%
- inhibition [6]: -5%
- Activity (Rattus norvegicus [7]): inactive
- inhibition [8]: 3%
- Activity (Rattus norvegicus [9]): Active
- inhibition [10]: 12%
